Results published in PMC3283556, “The Activities of Current Antimalarial Drugs on the Life Cycle Stages of Plasmodium: A Comparative Study with Human and Rodent Parasites” (PLoS Medicine, 2012).
Entries after “also recorded” stand apart in the source; their conditions may differ.

Legend:
[1] = test system: P. falciparum oocyst formation; experiment: Standard membrane feed assay, P. falciparum oocysts in A. stephensi; format: in vivo, Plasmodium falciparum; details: 10 µM, gametocytes exposed 24 h before feeding
Protocol: Gametocyte cultures were produced according to the same protocol as the Pf exflagellation assay. Pooled gametocyte cultures were evenly divided between compounds in fresh medium and incubated at 37°C for 24 h. The parasite pellets were then resuspended in fresh RBCs and human serum treated with the compounds to a 50% haematocrit and immediately fed to mosquitoes as described above and then maintained at 27°C/60%RH for 10–12 d before dissection and counting.
(§1) Figure 3 The transmission-blocking potential of selected antimalarials in three bioassays that cover different phases of Plasmodium vector stage development. (A) Assays examined exflagellation (P. falciparum), ookinete formation (P. berghei), or oocyst formation (P. falciparum). All antimalarials were screened at 10 µM. (B) The biological content of the in vitro P. berghei ookinete assay spans gamete formation, fertilization, zygote development, and ookinete formation. Ookinete formation was insensitive to most of the antimalarials tested. […] (D) The in vitro P. falciparum exflagellation assay exposes mature gametocytes to antimalarials for 24 h before triggering exflagellation. […] All experiments in triplicate. (E) The in vivo P. falciparum oocyst assay differs from the P. berghei oocyst assay in that mature gametocytes were exposed to the antimalarials in culture for 24 h before feeding to mosquitoes. […] NPC1161-B, lumefantrine, halofantrine, and mefloquine +RS isomer were also active. (n = 4–61 observations; average ± standard error of the mean [SEM]).

[2] = test system: P. berghei ookinete formation; experiment: P. berghei ookinete development assay; format: cell-based, Plasmodium berghei; details: 10 µM
Protocol: Compounds and P. berghei gametocyte-infected blood were dispensed in a 96-well plate containing ookinete medium. After 24 h at 19°C, Giemsa-stained ookinetes were counted under the microscope (×40) as previously described,[28].
as §1

[3] = test system: P. berghei oocyst formation; experiment: Standard membrane feed assay, P. berghei oocysts in A. stephensi; format: in vivo, Plasmodium berghei; details: for transmission-blocking effect on P. berghei oocysts (words): 10 µM
Protocol: Membrane feeds were performed as described previously. Briefly, PbGFPcon-infected mouse blood was mixed with compounds, immediately placed into membrane feeders (39°C) and offered for 30 min to 80–100 overnight-starved A. stephensi (SDA 500 strain). After 7–9 d at 19°C/80%RH, mosquito midguts were dissected out. Midguts were fixed with paraformaldehyde and oocyst number was determined microscopically by semi-automated analysis as previously described.
Supplementary file pmed.1001169.s001.tif: Figure S1 The transmission-blocking potential of selected compounds against P. berghei in standard membrane feeding assays. All antimalarials were screened at 10 µM in triplicate in independent experiments. The biological content of this assay spans gamete formation through to occyst development all within the gut of the mosquito. […] (TIF) Click here for additional data file.

Row | SMILES | transmission-blocking effect on P. falciparum oocysts (words) [1] | transmission-blocking effect on P. falciparum oocysts (words) ([1]; listed as NPC1161-B) | effect on ookinete formation [2] | transmission-blocking effect on P. berghei oocysts (words) [3] | inhibition at 10 µM ([3]; Plasmodium berghei) [%]
1 | COc1cc(N[C@H](C)CCCN)c2nccc(C)c2c1Oc1ccc(Cl)c(Cl)c1 [NPC-1161B] | totally blocked transmission | active; also recorded: showed potency | all assays except the ookinete assay | most notable transmission-blocking activity; also recorded: showed potency | > 90
2 | CCCCN(CCCC)CCC(O)c1cc2c(Cl)cc(Cl)cc2c2cc(C(F)(F)F)ccc12 (stereo not shown) [halofantrine] | active; also recorded: impaired sporogony |  |  | impaired sporogony | 
